The structures appear in SMILES notation. pIC50: −log10 of the molar value. Bridge positions count the residues as written; N and C are the ends. Square brackets hold non-standard residues; d marks the D form. Peptide text beside a SMILES is read from it. * marks the point of attachment. ξ: configuration not given here. Phe(4-COOH) = N[C@@H](Cc1ccc(C(=O)O)cc1)C(=O)O; Bip = N[C@@H](Cc1ccc(-c2ccccc2)cc1)C(=O)O; hArg = N=C(N)NCCCC[C@H](N)C(=O)O; 4Pal = N[C@@H](Cc1ccncc1)C(=O)O; Cha = N[C@@H](CC1CCCCC1)C(=O)O; Thr(3ξ) = CC(O)[C@H](N)C(=O)O; 12Ado = NCCCCCCCCCCCC(=O)O; Carboxymethyl = O=C(O)C*; Orn = NCCC[C@H](N)C(=O)O; Aun = NCCCCCCCCCCC(=O)O; Dab = NCC[C@H](N)C(=O)O; Dap = NC[C@H](N)C(=O)O; AEEA = NCCOCCOCC(=O)O

As usually defined, the pIC50 is the IC50 on a negative log10 scale, so that one unit is a factor of ten.

The target of this assay is T1, PD-1/PD-L1 interaction (PE-labeled human PD-L1-Ig binding to Jurkat cell line over-expressing human PD-1) (Homo sapiens, UniProt Q15116).
T1 construct: expressed in transfected cells; host or cells: Jurkat
T1 sequence (Q15116 25-288): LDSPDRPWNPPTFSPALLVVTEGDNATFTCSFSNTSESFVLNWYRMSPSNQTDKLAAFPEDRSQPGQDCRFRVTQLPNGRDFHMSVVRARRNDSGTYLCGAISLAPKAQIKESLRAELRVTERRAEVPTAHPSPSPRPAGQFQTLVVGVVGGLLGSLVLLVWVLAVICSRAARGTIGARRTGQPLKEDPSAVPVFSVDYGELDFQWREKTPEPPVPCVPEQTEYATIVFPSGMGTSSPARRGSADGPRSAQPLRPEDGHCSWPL
The assay can be described thus: Jurkat-PD-1 Cell Binding High-Content Screening Assay (CBA). Type of assay: cell-based. The conditions noted are these: Jurkat cell line over-expressing human PD-1; PE-labeled PD-L1-Ig 20 nM final; read-out: Jurkat hPD1-PDL1 IC50. The method, boiled down:
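First, compound is added to PD-1-expressing Jurkat cells in serum-containing DMEM and left 2 h at 37° C. Next, PE-conjugated PD-L1-Ig is introduced at 20 nM final concentration for 1 hour. Finally, cells are fixed in 4% paraformaldehyde with Hoechst 33342, washed and imaged.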
Regarding `CC(C)C[C@@H]1NC(=O)[C@H](Cc2c[nH]c3ccccc23)NC(=O)[C@H](CC(=O)O)NC(=O)[C@H](Cc2ccc(OCC(=O)O)cc2)NC(=O)[C@H](CCCCNC(=N)N)NC(=O)CSC[C@@H](C(=O)NCC(=O)NCCOCCOCC(=O)N[C@@H](CCCN)C(=O)NCCOCCOCC(=O)NCCCCCCCCCCCC(=O)O)NC(=O)[C@H](CO)NC(=O)[C@H](C(C)C)NC(=O)[C@H](CC2CCCCC2)NC(=O)[C@H](CCN)NC(=O)[C@@H](CC(C)C)NC(=O)[C@H](CCCN)NC(=O)[C@H](C(C)C)NC(=O)[C@H](Cc2ccc(-c3ccccc3)cc2)NC1=O` [Compound 3189] ({CH2CO}-[hArg]Y(Carboxymethyl)DWL[Bip]V[Orn][dL][Dab][Cha]VSCG[AEEA][Orn][AEEA][12Ado]-OH; thioether N-14), the pIC50 is 7.66. In the case of `CC(C)C[C@H]1NC(=O)[C@H](CCCN)NC(=O)[C@H](C(C)C)NC(=O)[C@H](Cc2ccc(-c3ccccc3)cc2)NC(=O)[C@H](C(C)C)NC(=O)[C@H](Cc2c[nH]c3ccccc23)NC(=O)[C@H](CC(=O)O)NC(=O)[C@H](Cc2ccc(OCC(=O)O)cc2)NC(=O)[C@H](CCCCNC(=N)N)NC(=O)CSC[C@@H](C(=O)NCC(=O)NCCOCCOCC(=O)N[C@@H](CCCN)C(=O)NCCOCCOCC(=O)NCCCCCCCCCCCC(=O)O)NC(=O)[C@H](CO)NC(=O)[C@H](C(C)C)NC(=O)[C@H](CC2CCCCC2)NC(=O)[C@H](CCN)NC1=O` [Compound 3190] ({CH2CO}-[hArg]Y(Carboxymethyl)DWV[Bip]V[Orn][dL][Dab][Cha]VSCG[AEEA][Orn][AEEA][12Ado]-OH; thioether N-14), the pIC50 was 7.69. On to `CC(C)C[C@H]1NC(=O)[C@H](CCCN)NC(=O)[C@H](C(C)C)NC(=O)[C@H](Cc2ccc(-c3ccccc3)cc2)NC(=O)[C@H](C(C)C)NC(=O)[C@H](Cc2c[nH]c3ccccc23)NC(=O)[C@H](CC(=O)O)NC(=O)[C@H](Cc2ccc(OCC(=O)O)cc2)NC(=O)[C@H](CN)NC(=O)CSC[C@@H](C(=O)N[C@@H](CCCN)C(=O)NCCOCCOCC(=O)NCCCCCCCCCCC(=O)O)NC(=O)[C@H](C(C)O)NC(=O)[C@H](C(C)C)NC(=O)[C@H](CC2CCCCC2)NC(=O)[C@H](CCN)NC1=O` (stereo partly drawn) [Compound 3191] ({CH2CO}-[Dap]Y(Carboxymethyl)DWV[Bip]V[Orn][dL][Dab][Cha]V[Thr(3ξ)]C[Orn][AEEA][Aun]-OH; thioether N-14), for which the pIC50 is 7.94.

Regarding `CC(C)C[C@H]1NC(=O)[C@H](CCCN)NC(=O)[C@H](C(C)C)NC(=O)[C@H](Cc2ccc(-c3ccccc3)cc2)NC(=O)[C@H](C(C)C)NC(=O)[C@H](Cc2c[nH]c3ccccc23)NC(=O)[C@H](CC(=O)O)NC(=O)[C@H](Cc2ccc(OCC(=O)O)cc2)NC(=O)[C@H](CN)NC(=O)CSC[C@@H](C(=O)N[C@@H](CCCN)C(=O)NCCOCCOCC(=O)NCCCCCCCCCCC(=O)O)NC(=O)[C@H](CO)NC(=O)[C@H](C(C)C)NC(=O)[C@H](CC2CCCCC2)NC(=O)[C@H](C(C)O)NC1=O` (stereo partly drawn) [Compound 3192] ({CH2CO}-[Dap]Y(Carboxymethyl)DWV[Bip]V[Orn][dL][Thr(3ξ)][Cha]VSC[Orn][AEEA][Aun]-OH; thioether N-14), the pIC50 was 7.74.

With `CC(C)C[C@H]1NC(=O)[C@H](CCCN)NC(=O)[C@H](C(C)C)NC(=O)[C@H](Cc2ccc(-c3ccccc3)cc2)NC(=O)[C@H](C(C)C)NC(=O)[C@H](Cc2c[nH]c3ccccc23)NC(=O)[C@H](CC(=O)O)NC(=O)[C@H](Cc2ccc(OCC(=O)O)cc2)NC(=O)[C@H](CN)NC(=O)CSC[C@@H](C(=O)NCCOCCOCC(=O)N[C@@H](CCCN)C(=O)NCCCCCCCCCCC(=O)O)NC(=O)[C@H](C(C)O)NC(=O)[C@H](C(C)C)NC(=O)[C@H](CC2CCCCC2)NC(=O)[C@H](CC(N)=O)NC1=O` (stereo partly drawn) [Compound 3193] ({CH2CO}-[Dap]Y(Carboxymethyl)DWV[Bip]V[Orn][dL]N[Cha]V[Thr(3ξ)]C[AEEA][Orn][Aun]-OH; thioether N-14), the pIC50 was 7.84. As for `CC(C)C[C@@H]1NC(=O)[C@H](Cc2c[nH]c3ccccc23)NC(=O)[C@H](CC(=O)O)NC(=O)[C@H](Cc2ccc(C(=O)O)cc2)NC(=O)[C@H](Cc2ccncc2)NC(=O)CSC[C@@H](C(=O)N[C@@H](CCN)C(=O)NCCOCCOCC(=O)N[C@@H](CCCN)C(=O)NCCCCCCCCCCC(=O)O)NC(=O)[C@H](CO)NC(=O)[C@H](C(C)C)NC(=O)[C@H](CC2CCCCC2)NC(=O)[C@H](CCN)NC(=O)[C@@H](CC(C)C)NC(=O)[C@H](CCCN)NC(=O)[C@H](C(C)C)NC(=O)[C@H](Cc2ccc(-c3ccccc3)cc2)NC1=O` [Compound 3195] ({CH2CO}-[4Pal][Phe(4-COOH)]DWL[Bip]V[Orn][dL][Dab][Cha]VSC[Dab][AEEA][Orn][Aun]-OH; thioether N-14), the pIC50 was 7.24.

In the case of `CC(C)C[C@H]1NC(=O)[C@H](CCCN)NC(=O)[C@H](C(C)C)NC(=O)[C@H](Cc2ccc(-c3ccccc3)cc2)NC(=O)[C@H](C(C)C)NC(=O)[C@H](Cc2c[nH]c3ccccc23)NC(=O)[C@H](CC(=O)O)NC(=O)[C@H](Cc2ccc(OCC(=O)O)cc2)NC(=O)[C@H](CCCCNC(=N)N)NC(=O)CSC[C@@H](C(=O)NCC(=O)NCCOCCOCC(=O)N[C@@H](CCCN)C(=O)NCCCCCCCCCCC(=O)O)NC(=O)[C@H](CN)NC(=O)[C@H](C(C)C)NC(=O)[C@H](CC2CCCCC2)NC(=O)[C@H](CCN)NC1=O` [Compound 3196] ({CH2CO}-[hArg]Y(Carboxymethyl)DWV[Bip]V[Orn][dL][Dab][Cha]V[Dap]CG[AEEA][Orn][Aun]-OH; thioether N-14), the pIC50 was 7.94. For the compound `CC(C)C[C@H]1NC(=O)[C@H](CCCN)NC(=O)[C@H](C(C)C)NC(=O)[C@H](Cc2ccc(-c3ccccc3)cc2)NC(=O)[C@H](C(C)C)NC(=O)[C@H](Cc2c[nH]c3ccccc23)NC(=O)[C@H](CC(=O)O)NC(=O)[C@H](Cc2ccc(OCC(=O)O)cc2)NC(=O)[C@H](CCCCNC(=N)N)NC(=O)CSC[C@@H](C(=O)NCC(=O)NCCOCCOCC(=O)N[C@@H](CCCN)C(=O)NCCCCCCCCCCC(=O)O)NC(=O)[C@H](CCN)NC(=O)[C@H](C(C)C)NC(=O)[C@H](CC2CCCCC2)NC(=O)[C@H](CCN)NC1=O` [Compound 3197] ({CH2CO}-[hArg]Y(Carboxymethyl)DWV[Bip]V[Orn][dL][Dab][Cha]V[Dab]CG[AEEA][Orn][Aun]-OH; thioether N-14), the pIC50 was 8.11. As to `CC(C)C[C@H]1NC(=O)[C@H](CCCN)NC(=O)[C@H](C(C)C)NC(=O)[C@H](Cc2ccc(-c3ccccc3)cc2)NC(=O)[C@H](C(C)C)NC(=O)[C@H](Cc2c[nH]c3ccccc23)NC(=O)[C@H](CC(=O)O)NC(=O)[C@H](Cc2ccc(OCC(=O)O)cc2)NC(=O)[C@H](CCCCNC(=N)N)NC(=O)CSC[C@@H](C(=O)NCC(=O)NCCOCCOCC(=O)N[C@@H](CCCN)C(=O)NCCCCCCCCCCC(=O)O)NC(=O)[C@H](CCCN)NC(=O)[C@H](C(C)C)NC(=O)[C@H](CC2CCCCC2)NC(=O)[C@H](CCN)NC1=O` [Compound 3198] ({CH2CO}-[hArg]Y(Carboxymethyl)DWV[Bip]V[Orn][dL][Dab][Cha]V[Orn]CG[AEEA][Orn][Aun]-OH; thioether N-14), the pIC50 is 8.40.

With `CC(C)C[C@H]1NC(=O)[C@H](CCCN)NC(=O)[C@H](C(C)C)NC(=O)[C@H](Cc2ccc(-c3ccccc3)cc2)NC(=O)[C@H](C(C)C)NC(=O)[C@H](Cc2c[nH]c3ccccc23)NC(=O)[C@H](CC(=O)O)NC(=O)[C@H](Cc2ccc(OCC(=O)O)cc2)NC(=O)[C@H](CCCCNC(=N)N)NC(=O)CSC[C@@H](C(=O)NCC(=O)NCCOCCOCC(=O)N[C@@H](CCCN)C(=O)NCCCCCCCCCCC(=O)O)NC(=O)[C@H](CCCCN)NC(=O)[C@H](C(C)C)NC(=O)[C@H](CC2CCCCC2)NC(=O)[C@H](CCN)NC1=O` [Compound 3199] ({CH2CO}-[hArg]Y(Carboxymethyl)DWV[Bip]V[Orn][dL][Dab][Cha]VKCG[AEEA][Orn][Aun]-OH; thioether N-14), the pIC50 was 8.26.

Take `CC(C)C[C@H]1NC(=O)[C@H](CCCN)NC(=O)[C@H](C(C)C)NC(=O)[C@H](Cc2ccc(-c3ccccc3)cc2)NC(=O)[C@H](C(C)C)NC(=O)[C@H](Cc2c[nH]c3ccccc23)NC(=O)[C@H](CC(=O)O)NC(=O)[C@H](Cc2c[nH]cn2)NC(=O)[C@H](CCCCNC(=N)N)NC(=O)CSC[C@@H](C(=O)NCC(=O)NCCOCCOCC(=O)N[C@@H](CCCN)C(=O)NCCCCCCCCCCC(=O)O)NC(=O)[C@H](CO)NC(=O)[C@H](C(C)C)NC(=O)[C@H](CC2CCCCC2)NC(=O)[C@H](CCN)NC1=O` [Compound 3200] ({CH2CO}-[hArg]HDWV[Bip]V[Orn][dL][Dab][Cha]VSCG[AEEA][Orn][Aun]-OH; thioether N-14): the negative-log IC50 (pIC50) is 8.14.

Turning to `CC(C)C[C@H]1NC(=O)[C@H](CCCN)NC(=O)[C@H](C(C)C)NC(=O)[C@H](Cc2ccc(-c3ccccc3)cc2)NC(=O)[C@H](C(C)C)NC(=O)[C@H](Cc2c[nH]c3ccccc23)NC(=O)[C@H](CC(=O)O)NC(=O)[C@H](Cc2ccc(OCC(=O)O)cc2)NC(=O)[C@H](CCCCNC(=N)N)NC(=O)CSC[C@@H](C(=O)NCC(=O)NCCOCCOCC(=O)N[C@@H](CCCN)C(=O)NCCCCCCCCCCC(=O)O)NC(=O)[C@H](CCN)NC(=O)[C@H](C(C)C)NC(=O)[C@H](CC2CCCCC2)NC(=O)[C@H](CC(N)=O)NC1=O` [Compound 3202] ({CH2CO}-[hArg]Y(Carboxymethyl)DWV[Bip]V[Orn][dL]N[Cha]V[Dab]CG[AEEA][Orn][Aun]-OH; thioether N-14), the pIC50 was 7.71. With `CC(C)C[C@H]1NC(=O)[C@H](CCCN)NC(=O)[C@H](C(C)C)NC(=O)[C@H](Cc2ccc(-c3ccccc3)cc2)NC(=O)[C@H](C(C)C)NC(=O)[C@H](Cc2c[nH]c3ccccc23)NC(=O)[C@H](CC(=O)O)NC(=O)[C@H](Cc2ccc(OCC(=O)O)cc2)NC(=O)[C@H](CCCCNC(=N)N)NC(=O)CSC[C@@H](C(=O)NCC(=O)NCCOCCOCC(=O)N[C@@H](CCCN)C(=O)NCCCCCCCCCCC(=O)O)NC(=O)[C@H](CCCN)NC(=O)[C@H](C(C)C)NC(=O)[C@H](CC2CCCCC2)NC(=O)[C@H](CC(N)=O)NC1=O` [Compound 3203] ({CH2CO}-[hArg]Y(Carboxymethyl)DWV[Bip]V[Orn][dL]N[Cha]V[Orn]CG[AEEA][Orn][Aun]-OH; thioether N-14), the negative logarithm of the IC50 (pIC50) is 7.55.

These data come from patent US20260022142A1, “MACROCYCLIC IMMUNOMODULATORS” (Bristol-Myers Squibb Company, priority 2022, published 2026).
